From ChEMBL document CHEMBL1140139, “A beta-fluoroamine inhibitor of purine nucleoside phosphorylase” (J Med Chem, 2008)

Tests used:
[1] = target: T1, Purine nucleoside phosphorylase (Plasmodium falciparum, UniProt Q8T9Z7); test: Inhibition of Plasmodium falciparum purine nucleoside phosphorylase by xanthine-oxidase coupled assay
T1 sequence (Q8T9Z7 whole entry): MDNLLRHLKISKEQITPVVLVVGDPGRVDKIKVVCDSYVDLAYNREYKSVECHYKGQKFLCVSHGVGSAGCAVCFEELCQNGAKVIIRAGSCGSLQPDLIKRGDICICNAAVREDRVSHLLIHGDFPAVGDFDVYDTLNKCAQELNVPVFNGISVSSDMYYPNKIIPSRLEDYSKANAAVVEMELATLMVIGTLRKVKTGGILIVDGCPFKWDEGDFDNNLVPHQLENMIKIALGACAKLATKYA

[2] = target: T2, Purine nucleoside phosphorylase (Homo sapiens, UniProt P00491); test: Inhibition of human purine nucleoside phosphorylase by xanthine-oxidase coupled assay
T2 sequence (P00491 whole entry): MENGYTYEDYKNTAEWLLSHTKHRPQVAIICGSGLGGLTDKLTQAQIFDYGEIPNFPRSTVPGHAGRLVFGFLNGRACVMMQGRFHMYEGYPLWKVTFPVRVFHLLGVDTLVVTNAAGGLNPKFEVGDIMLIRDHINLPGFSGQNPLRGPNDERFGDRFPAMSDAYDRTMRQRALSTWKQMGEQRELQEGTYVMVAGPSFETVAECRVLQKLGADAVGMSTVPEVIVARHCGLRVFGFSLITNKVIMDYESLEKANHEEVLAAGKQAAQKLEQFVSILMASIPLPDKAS

[3] = species: Mus musculus; test: animal or person; details: Blood, po, read-out: INH
Description: Inhibition of purine nucleoside phosphorylase in mouse blood at 0.2 mg/kg, po administered as single dose

[4] = in vivo; details: mouse, po, 14 nmol
Description: Half life in mouse at 14 nmol, po administered as single dose

[5] = target: T2, Purine nucleoside phosphorylase; test: Inhibition of human purine nucleoside phosphorylase assessed as slow onset inhibition constant by xanthine-oxidase coupled assay
[6] = in vivo; details: mouse, ip, 14 nmol
Description: Half life in mouse at 14 nmol, ip administered as single dose

[7] = target: T1, Purine nucleoside phosphorylase; test: Inhibition of Plasmodium falciparum purine nucleoside phosphorylase assessed as slow onset inhibition constant by xanthine-oxidase coupled assay

Compound	Ki [1] [nM]	Ki [2] [nM]	inhibition in vivo at 0.2 mg/kg [3] [%]	half-life [4] [h]	Ki* [5] [nM]	half-life [6] [h]	Ki [7] [nM]
O=c1[nH]cnc2c(CN3C[C@H](O)[C@@](F)(CO)C3)c[nH]c12	2.63	0.33	80	20	0.032	< 0.25	19
O=c1[nH]cnc2c(CN3C[C@H](O)[C@@](F)(CO)C3)c[nH]c12 (racemic)	3.6						23.3
O=c1[nH]cnc2c(CN3C[C@@H](O)[C@](F)(CO)C3)c[nH]c12	260	18			1.82		2070
O=c1[nH]cnc2c(CN3C[C@@H](CO)[C@H](O)C3)c[nH]c12	80	0.38					1700
